In patent publication US20200239473A1, “NEW DERIVATIVES OF LICOFELONE” (priority 2015, published 2020):

Experiment: Metabolic stability in minipig intestinal fluid, quantification of licofelone by HPLC/UV
Type: in vitro ADME, Gottingen SPF minipig
Conditions: diluted minipig intestinal fluid; result in words
Experimental: Metabolic Stability of NSAID in Minipig Intestinal Fluid—Quantification of Licofelone
Intestinal tissue/fluid and enterocyte samples were taken from a 10 month old, female Gottingen SPF minipig. The body weight was 21 kg. The minipig was fasted for approximately 28 hours before sampling of intestinal fluid/tissues and enterocytes. On the day of sampling, the minipig was weighed and anaesthetised. The animal was killed by exsanguination before the sampling of intestinal fluid. An intestinal segment was ligated at both ends before removal. The isolated tissue was placed in isotonic saline and opened by a longitudinal cut for sampling of intestinal fluid.
The intestinal tissue from each segment was transferred into a Centrifuge Tube, immersed in 10 ml 50mM phosphate buffer, pH 6.8 and frozen at −70° C.
b) Incubation Experiments with Minipig Intestinal Fluid (without FaSSIF) […]
A set of six reference solutions (solvent: 1 vol IF and 4 vol 2% bovine serum albumin in FaSSIF pH 6.5) with licofelone concentrations between 38.0 and 0.19 μg/ml and the solvent without licofelone were analysed in duplicate. The obtained concentration/peak area data pairs were subjected to linear regression analysis and the resulting calibration curve (r^2=0.9999) was used for quantification of licofelone in incubation experiments.

| Compound | release of licofelone compared with Examples bearing a hydroxy group or an MMF residue as R |
| --- | --- |
| CC1(C)Cc2c(-c3ccccc3)c(-c3ccc(Cl)cc3)c(CC(=O)OCCOCCOCCOCCOC(=O)Cc3c(-c4ccc(Cl)cc4)c(-c4ccccc4)c4n3CC(C)(C)C4)n2C1 [Reference Example 4b, [2-(4-Chloro-phenyl)-6,6-dimethyl-1-phenyl-6,7-dihydro-5H-pyrrolizin-3-yl]acetic acid 2-{2-[2-(2-{2-[2-(4-chloro-phenyl)-6,6-dimethyl-1-phenyl-6,7-dihydro-5H-pyrrolizin-3-yl]-acetoxy}-ethoxy)-ethoxy]-ethoxy}-ethyl ester] | significantly lower |
| CC1(C)Cc2c(-c3ccccc3)c(-c3ccc(Cl)cc3)c(CC(=O)OCCOC(=O)Cc3c(-c4ccc(Cl)cc4)c(-c4ccccc4)c4n3CC(C)(C)C4)n2C1 [Reference Example 5b, 2-[2-[2-(4-chlorophenyl)-6,6-di-methyl-1-phenyl-5,7-dihydropyrrolizin-3-yl]acetyl]oxyethyl-2-[2-(4-chloro-phenyl)-6,6-dimethyl-1-phenyl-5,7-dihydropyrrolizin-3-yl]acetate] | significantly lower |
